# Source: US6429229B1, “Keto acid salts and amine derivatives, and their use for preparing medicines” (Chiesi S.A., priority 1998, dated 2002)
# Assays:
# colic distension in rat [1] = assay: Colic distension in rat (colon irritated with 1% acetic acid, balloon distension, abdominal cramps counted); type: in vivo; conditions: for Mean number of abdominal cramps ± standard error: 10 min colic distension, * = different from placebo at p < 0.05 (Dunnett); for Activity in the model of colic distension (in words) / Dose at/from which active in colic distension: oral route; for Activity in the model of colic distension (in words): 1 to 20 mg/kg
# Source text: This physiopathological mechanism inspired the creation of the model of distension of the colon first irritated with 1% acetic acid, in rat. […] IIS is characterized by the presence of abdominal pain. Patients having this pathology have a lowered threshold of digestive sensitivity.
# The analgesic activity was studied on the model of digestive pain in observed rat. This pain is brought about by distension of the colon with a balloon.
# Male Sprague-Dawley rats of about 180 g, fasted from the day before, are used. Under light fluothane anesthesia, an intrarectal probe is introduced 5 cm into the anus and 1.5 ml of 1% acetic acid is injected. An hour and 30 minutes after irritation, a latex balloon (empty diameter 2 mm, length 1 cm) mounted on a polyethylene catheter is introduced into the colon to the site of the irritation.
# The product to be tested or the vehicle (distilled water) is administered per os in a volume of 1 ml, then the rat is observed on a Petri dish.
# Distension of the colon is carried out 2 hours and 20 minutes after irritation. It is effected at a fixed volume of 1.5 ml of distilled water. The colic distension gives rise to digestive pain manifested by abdominal cramps whose number reflects the intensity of the pain. The colic distension is maintained for 10 minutes in the course of which the abdominal cramps are counted.
# Statistical analysis is carried out with the help of the Dunnett test which compares a same group of vehicle animals (40) to several groups of rats (six animals per group) having received the studied molecules. The threshold of significance is fixed at 5%.
# The molecules are tested by the oral route at 1-10-20 mg/kg. They are dissolved in distilled water.
# The vehicle used as placebo is comprised by distilled water.
# Comparative tests 1 to 5 are products available commercially and are used as such, except ornithine chlorhydrate which is salted out by methods known in the literature and stored in solution in water.
# somatic pain test in rat = conditions: doses between 300 and 1000 mg/kg by subcutaneous route in rat; cited from earlier work
# writhing test in mice = conditions: 500 and 1000 mg/kg by intravenous route in mice; cited from earlier work
# colic distension in rat [2] = conditions: cited from earlier work; for Activity on the model of colic distension (in words): background statement
# [3] = tested on: writhing test in rat or a mouse; conditions: i.p. phenylbenzoquinone or 3% acetic acid; cited from earlier work
molecule,measurement,setting,value
"O=C(O)CCC(=O)C(=O)O [Comparison 1, α-keto-glutaric acid]",Mean number of abdominal cramps ± standard error,colic distension in rat [1]; 1 mg/kg p.o.,17 ± 1
same,Mean number of abdominal cramps ± standard error,colic distension in rat [1]; 10 mg/kg p.o.,17 ± 4
same,Mean number of abdominal cramps ± standard error,colic distension in rat [1]; 20 mg/kg p.o.,22 ± 6
same,Activity in the model of colic distension (in words),colic distension in rat [1],inactive
"Cl.NCCC[C@H](N)C(=O)O [Comparison 2, Ornithine, HCl]",Activity in a somatic pain test (in words),somatic pain test in rat,active
same,Activity in the writhing test (in words),writhing test in mice,active
same,Mean number of abdominal cramps ± standard error,colic distension in rat [1]; 1 mg/kg p.o.,20 ± 3
same,Mean number of abdominal cramps ± standard error,colic distension in rat [1]; 10 mg/kg p.o.,19 ± 6
same,Mean number of abdominal cramps ± standard error,colic distension in rat [1]; 20 mg/kg p.o.,18 ± 6
same,Activity in the model of colic distension (in words),colic distension in rat [1],inactive
"CCC(=O)C(=O)O [Comparison 3, α-keto-butyric acid]",Mean number of abdominal cramps ± standard error,colic distension in rat [1]; 1 mg/kg p.o.,19 ± 2
same,Mean number of abdominal cramps ± standard error,colic distension in rat [1]; 10 mg/kg p.o.,20 ± 3
same,Mean number of abdominal cramps ± standard error,colic distension in rat [1]; 20 mg/kg p.o.,19 ± 3
same,Activity in the model of colic distension (in words),colic distension in rat [1],inactive
"NC(=O)CC[C@H](N)C(=O)O [Comparison 4, Glutamine]",Mean number of abdominal cramps ± standard error,colic distension in rat [1]; 1 mg/kg p.o.,21 ± 2
same,Dose at/from which active in colic distension,colic distension in rat [1],10 mg/kg
same,Activity in the test of colic distension (in words),colic distension in rat [2]; 6 mg/kg by rectal route in rat (local administration on the irritated colic mucosa),active
"N=C(N)NCCC[C@H](N)C(=O)O [Comparison 5, Arginine]",Mean number of abdominal cramps ± standard error,colic distension in rat [1]; 1 mg/kg p.o.,20 ± 6
same,Mean number of abdominal cramps ± standard error,colic distension in rat [1]; 10 mg/kg p.o.,20 ± 9
same,Dose at/from which active in colic distension,colic distension in rat [1],≥ 20 mg/kg
CN1CC[C@]23c4c5ccc(O)c4O[C@H]2[C@@H](O)C=C[C@H]3[C@H]1C5 [Morphine],Activity on the model of colic distension (in words),colic distension in rat [2],active
CC(=O)Oc1ccccc1C(=O)O [aspirin],Activity in the writhing test (in words),[3],active
same,Activity on the model of colic distension (in words),colic distension in rat [2],inactive
CC(=O)Nc1ccc(O)cc1 [paracetamol],Activity in the writhing test (in words),[3],active
same,Activity on the model of colic distension (in words),colic distension in rat [2],inactive
Di-arginine Keto-glutarate [Example 3],Mean number of abdominal cramps ± standard error,colic distension in rat [1]; 1 mg/kg p.o.,17 ± 9
Di-ornithine Keto-glutarate [Example 2],Dose at/from which active in colic distension,colic distension in rat [1],1 mg/kg
Mono-ornithine Keto-butyrate [Example 6],Dose at/from which active in colic distension,colic distension in rat [1],≥ 1 mg/kg
Mono-ornithine Keto-glutarate [Example 1],Dose at/from which active in colic distension,colic distension in rat [1],1 mg/kg
Ornithine and Arginine Keto-glutarate [Example 4],Mean number of abdominal cramps ± standard error,colic distension in rat [1]; 1 mg/kg p.o.,18 ± 2
Ornithine and Glutamine Keto-glutarate [Example 5],Dose at/from which active in colic distension,colic distension in rat [1],≥ 1 mg/kg
